Key:
CD4+ T cells from PBMC = assay: IFN-γ ELISpot, PBMC-derived in vitro expanded CD4+ T cell lines; format: cell-based, human; design: key to T cell recognition by PBMC from a T1D donor (mark E) / T cell recognition by PBMC from a T1D donor: E: T cell recognition by PBMC from a T1D donor was tested and verified; see Figure 5; conditions: for T1D Donor T cell response / non-T1D Donor T cell response: PBMC T cell lines, responding donors/donors tested; for T cell recognition by PBMC from a T1D donor (mark E) / T cell recognition by PBMC from a T1D donor: MHC-II peptides; for T cell recognition by PBMC from a T1D donor (mark E): tested and verified, see Figure 5; for Number of donors whose CD4 T cells recognized the peptide (IFN-γ ELISpot): T1D donors, PBMC-derived lines (Figure 5J); for IFN-γ ELISpot response of expanded CD4+ T cells: control donor LSLP-074, frequencies ∼10-fold lower than for T1D-004 (Figures 5E, 5F, S5B); for IFN-γ ELISpot response of expanded CD4 T cells: control donor LSLP-153, line expanded with megapool HPAP-DR3 + SEC-DR3, tested with individual peptides (Figure S5C); for T cell recognition by PBMC from a T1D donor: superscript E on the peptide, G = verified with QBL cells
CD8+ T cells from PBMC = assay: IFN-γ ELISpot, PBMC-derived in vitro expanded CD8+ T cell lines; format: cell-based, human; conditions: A2 Set Peptides; PBMC T cell lines; responding donors/donors tested
[1] = SEC (Secretory) DR3 Peptides Set
[2] = PTM and unmodified native Pool Peptides (pool PTM 1), long peptides

AAIQDGLAKGENDETVSNT [compound 190, secretory hormone eluted peptide, pool SEC DR3]
T1D Donor T cell response (CD4+ T cells from PBMC; [1]): 0/4
non-T1D Donor T cell response (CD4+ T cells from PBMC; [1]): 0/4

AEDLQVGEVELGGGPGAGSLQPL [145-1, PTM peptide, E=deamidated Q=glutamic acid, pool PTM DR3]
T1D Donor T cell response (CD4+ T cells from PBMC; [2]): 0/4
non-T1D Donor T cell response (CD4+ T cells from PBMC; [2]): 0/4

AEDLQVGQVELGGGPGAGSLQPL [compound 145, non-modified native peptide, pool PTM DR3]
T1D Donor T cell response (CD4+ T cells from PBMC; [2]): 0/4
non-T1D Donor T cell response (CD4+ T cells from PBMC; [2]): 0/4

AELEDDFKEGYLE
T cell recognition by PBMC from a T1D donor (mark E) (CD4+ T cells from PBMC): AE LEDDFKEGY LE ^ E

AELEDDFKEGYLE [peptide 2]
T1D Donor T cell response (CD4+ T cells from PBMC; DR3/DQ Set Peptides): 2/4
non-T1D Donor T cell response (CD4+ T cells from PBMC; DR3/DQ Set Peptides): 1/2
Number of donors whose CD4 T cells recognized the peptide (IFN-γ ELISpot) (CD4+ T cells from PBMC): three of the donors
IFN-γ ELISpot response of expanded CD4+ T cells (CD4+ T cells from PBMC): responded

APGY LAITKKVAV PY
T cell recognition by PBMC from a T1D donor (mark E) (CD4+ T cells from PBMC): E

APGYLAITKKVAVPY [compound 30]
T1D Donor T cell response (CD4+ T cells from PBMC; DR3/DQ Set Peptides): 3/4
non-T1D Donor T cell response (CD4+ T cells from PBMC; DR3/DQ Set Peptides): 1/2
Number of donors whose CD4 T cells recognized the peptide (IFN-γ ELISpot) (CD4+ T cells from PBMC): three of the donors

APGYLAITKKVAVPY [compound 151]
T1D Donor T cell response (CD4+ T cells from PBMC; HPAP-DR3 Pool Peptides): 0/4
non-T1D Donor T cell response (CD4+ T cells from PBMC; HPAP-DR3 Pool Peptides): 1/4
IFN-γ ELISpot response of expanded CD4 T cells (CD4+ T cells from PBMC): positive response

AVPEEEGPTVVLNPHPSLG [peptide 148, non-modified native peptide from CHGA, pool PTM DR3]
T1D Donor T cell response (CD4+ T cells from PBMC; [2]): 0/4
non-T1D Donor T cell response (CD4+ T cells from PBMC; [2]): 0/4

AVPEEEGPTVVLXPHPSLG [AVPEEEGPTVVLXPHPSLG (X=deamindated N=asp)]
T cell recognition by PBMC from a T1D donor (CD4+ T cells from PBMC): AVPEEEGPTVVLXPHPSLG^E,G (X=deamindated N=asp)

AVPEEEGPTVVLXPHPSLG [AVPEEEGPTVVLXPHPSLG (X=deamindated N=isoasp)]
T cell recognition by PBMC from a T1D donor (CD4+ T cells from PBMC): AVPEEEGPTVVLXPHPSLG^E,G (X=deamindated N=isoasp)

DDALVRQDAQDLYEAG [compound 9]
T1D Donor T cell response (CD4+ T cells from PBMC; DR3/DQ Set Peptides): 0/4
non-T1D Donor T cell response (CD4+ T cells from PBMC; DR3/DQ Set Peptides): 0/2

DDPDGLHQLDGTPLTAED [compound 189, secretory hormone eluted peptide from SCG3, pool SEC DR3]
T1D Donor T cell response (CD4+ T cells from PBMC; [1]): 0/4
non-T1D Donor T cell response (CD4+ T cells from PBMC; [1]): 1/4
IFN-γ ELISpot response of expanded CD4 T cells (CD4+ T cells from PBMC): IFN-γ responses

DLNGDLTATREEF [compound 5]
T1D Donor T cell response (CD4+ T cells from PBMC; DR3/DQ Set Peptides): 0/4
non-T1D Donor T cell response (CD4+ T cells from PBMC; DR3/DQ Set Peptides): 0/2

DNMNDNFLEGEEENELTLN [compound 185, secretory hormone eluted peptide, pool SEC DR3]
T1D Donor T cell response (CD4+ T cells from PBMC; [1]): 0/4
non-T1D Donor T cell response (CD4+ T cells from PBMC; [1]): 0/4

EDYYVSKSAVVFGG
T cell recognition by PBMC from a T1D donor (mark E) (CD4+ T cells from PBMC): ED YYVSKSAVV FGG ^ E

EDYYVSKSAVVFGG [compound 28]
T1D Donor T cell response (CD4+ T cells from PBMC; DR3/DQ Set Peptides): 2/4
non-T1D Donor T cell response (CD4+ T cells from PBMC; DR3/DQ Set Peptides): 1/2

ELSAERPLNEQIAEAE
T cell recognition by PBMC from a T1D donor (mark E) (CD4+ T cells from PBMC): ELSAERP LNEQIAEAE ^ E

ELSAERPLNEQIAEAE [compound 144, non-modified native peptide, pool PTM DR3]
T1D Donor T cell response (CD4+ T cells from PBMC; [2]): 0/4
non-T1D Donor T cell response (CD4+ T cells from PBMC; [2]): 0/4

ELSAERPLNEQIAEAE [compound 186, secretory hormone eluted peptide from SCG3, pool SEC DR3]
T1D Donor T cell response (CD4+ T cells from PBMC; [1]): 0/4
non-T1D Donor T cell response (CD4+ T cells from PBMC; [1]): 1/4
IFN-γ ELISpot response of expanded CD4 T cells (CD4+ T cells from PBMC): IFN-γ responses

ELSAERPLNEQIAEAE [peptide 32]
T1D Donor T cell response (CD4+ T cells from PBMC; DR3/DQ Set Peptides): 1/4
non-T1D Donor T cell response (CD4+ T cells from PBMC; DR3/DQ Set Peptides): 0/2

ELXAERPLNEQIAEAE [144-1, PTM peptide, X=dehydroS=dehydroAla, pool PTM DR3]
T1D Donor T cell response (CD4+ T cells from PBMC; [2]): 0/4
non-T1D Donor T cell response (CD4+ T cells from PBMC; [2]): 0/4

ETDKEQLTAEAKELRQK
T cell recognition by PBMC from a T1D donor (mark E) (CD4+ T cells from PBMC): ETDKEQ LTAEAKELR QK ^ E

ETDKEQLTAEAKELRQK [peptide 6]
T1D Donor T cell response (CD4+ T cells from PBMC; DR3/DQ Set Peptides): 1/4
non-T1D Donor T cell response (CD4+ T cells from PBMC; DR3/DQ Set Peptides): 0/2

FQYIIDNKGIDSDAS
T cell recognition by PBMC from a T1D donor (mark E) (CD4+ T cells from PBMC): FQ YIIDNKGID SDAS ^ E

FQYIIDNKGIDSDAS [compound 31]
T1D Donor T cell response (CD4+ T cells from PBMC; DR3/DQ Set Peptides): 1/4
non-T1D Donor T cell response (CD4+ T cells from PBMC; DR3/DQ Set Peptides): 0/2

GFPTIYFSPANKKLNPK [compound 154]
T1D Donor T cell response (CD4+ T cells from PBMC; HPAP-DR3 Pool Peptides): 0/4
non-T1D Donor T cell response (CD4+ T cells from PBMC; HPAP-DR3 Pool Peptides): 0/4

GKRAIILETRQHRLF [peptide 1]
T1D Donor T cell response (CD4+ T cells from PBMC; DR3/DQ Set Peptides): 0/4
non-T1D Donor T cell response (CD4+ T cells from PBMC; DR3/DQ Set Peptides): 0/2

GREEITYDTPFKREKS
T cell recognition by PBMC from a T1D donor (mark E) (CD4+ T cells from PBMC): GREE ITYDTPFKR EKS ^ E

GREEITYDTPFKREKS [compound 16]
T1D Donor T cell response (CD4+ T cells from PBMC; DR3/DQ Set Peptides): 3/4
non-T1D Donor T cell response (CD4+ T cells from PBMC; DR3/DQ Set Peptides): 0/2
Number of donors whose CD4 T cells recognized the peptide (IFN-γ ELISpot) (CD4+ T cells from PBMC): three of the donors

GRGGEPRAYFMSDTREE [compound 183, secretory hormone eluted peptide, pool SEC DR3]
T1D Donor T cell response (CD4+ T cells from PBMC; [1]): 0/4
non-T1D Donor T cell response (CD4+ T cells from PBMC; [1]): 0/4

GSDDWAYDQGIRYS
T cell recognition by PBMC from a T1D donor (mark E) (CD4+ T cells from PBMC): GSDD WAYDQGIRY S ^ E

GSDDWAYDQGIRYS [compound 21]
T1D Donor T cell response (CD4+ T cells from PBMC; DR3/DQ Set Peptides): 3/4
non-T1D Donor T cell response (CD4+ T cells from PBMC; DR3/DQ Set Peptides): 0/2

GSEEYRAPRPQSEESWDEED [compound 181, secretory hormone eluted peptide, pool SEC DR3]
T1D Donor T cell response (CD4+ T cells from PBMC; [1]): 0/4
non-T1D Donor T cell response (CD4+ T cells from PBMC; [1]): 1/4

GSHLVEALYLVCGEXGF [146-2]
T1D Donor T cell response (CD4+ T cells from PBMC; [2]): 0/4
non-T1D Donor T cell response (CD4+ T cells from PBMC; [2]): 0/4

GVSDQSFQVEEAKRIKQ [compound 25]
T1D Donor T cell response (CD4+ T cells from PBMC; DR3/DQ Set Peptides): 0/4
non-T1D Donor T cell response (CD4+ T cells from PBMC; DR3/DQ Set Peptides): 0/2

HPQGAWKELDRNY [compound 184, secretory hormone eluted peptide from SCG1, pool SEC DR3]
T1D Donor T cell response (CD4+ T cells from PBMC; [1]): 0/4
non-T1D Donor T cell response (CD4+ T cells from PBMC; [1]): 1/4
IFN-γ ELISpot response of expanded CD4 T cells (CD4+ T cells from PBMC): IFN-γ responses

IDQINTDLNLERSHA [compound 17]
T1D Donor T cell response (CD4+ T cells from PBMC; DR3/DQ Set Peptides): 0/4
non-T1D Donor T cell response (CD4+ T cells from PBMC; DR3/DQ Set Peptides): 0/2

IDSLIELSTKLHLPADD [compound 153]
T1D Donor T cell response (CD4+ T cells from PBMC; HPAP-DR3 Pool Peptides): 0/4
non-T1D Donor T cell response (CD4+ T cells from PBMC; HPAP-DR3 Pool Peptides): 0/4

IGEETVITVDTKAAGKGK [peptide 14]
T1D Donor T cell response (CD4+ T cells from PBMC; DR3/DQ Set Peptides): 0/4
non-T1D Donor T cell response (CD4+ T cells from PBMC; DR3/DQ Set Peptides): 0/2

IPGYIVDDSVRVEQ [peptide 19]
T1D Donor T cell response (CD4+ T cells from PBMC; DR3/DQ Set Peptides): 0/4
non-T1D Donor T cell response (CD4+ T cells from PBMC; DR3/DQ Set Peptides): 0/2

ITSIVKDSSAARNGL
T cell recognition by PBMC from a T1D donor (mark E) (CD4+ T cells from PBMC): ITS IVKDSSAAR NGL ^ E

ITSIVKDSSAARNGL [peptide 18]
T1D Donor T cell response (CD4+ T cells from PBMC; DR3/DQ Set Peptides): 2/4
non-T1D Donor T cell response (CD4+ T cells from PBMC; DR3/DQ Set Peptides): 0/2

KARFAKQPAYTLVDR
T cell recognition by PBMC from a T1D donor (mark E) (CD4+ T cells from PBMC): KAR FAKQPAYTL VDR ^ E

KARFAKQPAYTLVDR [compound 24]
T1D Donor T cell response (CD4+ T cells from PBMC; DR3/DQ Set Peptides): 3/4
non-T1D Donor T cell response (CD4+ T cells from PBMC; DR3/DQ Set Peptides): 2/2
Number of donors whose CD4 T cells recognized the peptide (IFN-γ ELISpot) (CD4+ T cells from PBMC): three of the donors
IFN-γ ELISpot response of expanded CD4+ T cells (CD4+ T cells from PBMC): responded

KQGYQLIEGNQVLHS [compound 20]
T1D Donor T cell response (CD4+ T cells from PBMC; DR3/DQ Set Peptides): 0/4
non-T1D Donor T cell response (CD4+ T cells from PBMC; DR3/DQ Set Peptides): 0/2

KRPAIWIDTGIHSRE
T cell recognition by PBMC from a T1D donor (mark E) (CD4+ T cells from PBMC): KRPA IWIDTGIHS RE ^ E

KRPAIWIDTGIHSRE [peptide 10]
T1D Donor T cell response (CD4+ T cells from PBMC; DR3/DQ Set Peptides): 4/4
non-T1D Donor T cell response (CD4+ T cells from PBMC; DR3/DQ Set Peptides): 2/2
Number of donors whose CD4 T cells recognized the peptide (IFN-γ ELISpot) (CD4+ T cells from PBMC): all four donors
IFN-γ ELISpot response of expanded CD4+ T cells (CD4+ T cells from PBMC): responded

LEKDIISDTSGDFRK [compound 8]
T1D Donor T cell response (CD4+ T cells from PBMC; DR3/DQ Set Peptides): 0/4
non-T1D Donor T cell response (CD4+ T cells from PBMC; DR3/DQ Set Peptides): 0/2

YLLEKNRVV [compound 117, 15]
T1D Donor T cell response (CD8+ T cells from PBMC): 0/4
non-T1D Donor T cell response (CD8+ T cells from PBMC): 0/2

YLLEKSRVV [compound 118, 15]
T1D Donor T cell response (CD8+ T cells from PBMC): 0/4
non-T1D Donor T cell response (CD8+ T cells from PBMC): 0/2

Reference: paper PMC12624573, “The antigen presentation landscape of cytokine-stressed human pancreatic islets” (Cell reports, 2025)
